US20100137161A1, “METHOD OF GENERATING A PLATELET […] FOR AN INDIVIDUAL” (ROYAL COLLEGE OF SURGEONS IN IRELAND, priority 2006, published 2010)

System: platelet rich plasma (PRP)
Assay: 96 well plate light transmission platelet aggregation assay, dose response to multiple agonists
Type: cell-based
Conditions: for platelet reactivity induced by the agonist (dose response curve): PRP of an inflamed rheumatoid arthritis patient, compared to the normal population (n=50), FIG. 3
Procedure: Healthy subjects who had not taken any antiplatelet medication in the 14 days prior to the study were recruited. Subjects refrained from intensive exercise and tobacco use for 4 hours prior to early morning phlebotomy. Blood was drawn from the antecubital fossa. The first 5 ml taken was discarded to avoid unwanted platelet activation and the next 27 ml of blood was collected in 3 ml of 3.2% sodium citrate anticoagulant. This blood citrate mixture was then centrifuged at 150 g for 10 min to recover the supernatant platelet rich plasma (PRP). The platelet concentration was measured using a Sysmex KX 21N.
A 96 well black isoplate with clear bottoms was used. Agonists were arranged in rows of Row 1—Arachidonic Acid (AA), Row 2—Collagen, Row 3—ADP, Row 4—Epinephrine, Row 5—Thrombin related activated peptide (TRAP) and Row 6 as a control row containing 4 wells of PRP and 4 wells of Platelet Poor Plasma (PPP). The remaining 6 rows maybe used for additional agonists or specific peptides as required.
Buffer A (6 mM Dextrose, 130 mM NaCl, 9 mM NaHCO3, 10 mM trisodium citrate, 10 mM Tris Base, 3 mM KCl, 0.81 mM KH2PO4, and 0.9 mM MgCl26H2O [pH7.4]) was added to wells 2-8 on each row using a 12 channel pipette. Row 1—10 μl of buffer A was inserted into well 2. Then 20 μl of buffer A was added to each of the wells 3-8 inclusive. Then 50 μl of AA (500 mg/ml stock) was inserted into well 1. 30 μl of AA was removed from well 1 and mixed with buffer A in well 2. 20 μl of the AA/buffer A was removed from well 2 and mixed in well 3. 20 μl is then removed from well 3 and mixed in well 4. This is repeated throughout the row up to and including well 8 with 20 μl left over and discarded. Row 2—Collagen (1.9 mg.ml stock) same process as Row 1. Row 3 & 5 ADP (Row 3) and TRAP (Row 5), wells 2-8 had 20 μl of buffer A placed into each. A quantity of 40 μl of ADP (200 μM stock) was placed into well 1. 20 μl of agonist was removed from well 1 and placed into well 2 where it was then mixed thoroughly with buffer A. This same process was then repeated across the plate with 20 μl left over after well 8. This was then discarded. The same process is repeated for Row 5—TRAP (200 μM stock). […]
The plate is then placed into a Wallac Victor 3 plate reader. The plate is read at time zero (T0) at absorbance 572 nm. […] T3 (3 minutes) read is taken and then shaking recommences until T9 (9 minutes) read. Further reads are taken at T15 (15 minutes) and T18 (18 minutes) with shaking in between each time-point. […]
The data is then normalised from the PPP and PRP absorbance values which represent minimum and maximum aggregation. […]

| SMILES | platelet reactivity induced by the agonist (dose response curve) | inhibition of the COX pathway, arachidonic acid dose response curve (same male, visit 2, 4 weeks later, aspirin (soluble) 150 mg with clopidogrel 75 mg once daily, FIG. 7) |
| --- | --- | --- |
| Nc1ncnc2c1ncn2[C@@H]1O[C@H](COP(=O)(O)OP(=O)(O)O)[C@@H](O)[C@H]1O [ADP] | excessive platelet reactivity | – |
| CCCCC/C=C\C/C=C\C/C=C\C/C=C\CCCC(=O)O [Arachidonic Acid] | excessive platelet reactivity | – |
| CNC[C@H](O)c1ccc(O)c(O)c1 [Epinephrine] | excessive platelet reactivity | – |
| CC(=O)Oc1ccccc1C(=O)O [aspirin (soluble), aspirin] | – | clearly inhibited |
